Assay: Dissociation constant, pKa of the compound
Format: physicochemical

| pKa | SMILES |
| --- | --- |
| 1.2 | CN(C)C(=O)c1ccccc1 |
| 9.6 | NCc1ccccc1 [BENZYLAMINE] |
| 1.54 | C[S+](C)[O-] [DIMETHYL SULFOXIDE] |
| 2.24 | c1ccnnc1 [PYRIDAZINE] |
